Measured values from ChEMBL document CHEMBL1201862, “PubChem BioAssay data set” (2004).
Values belong to the molecule of their own block, whether it stands above or below them. The source made the active and inactive calls.

What was measured:
Assay type in all cases: functional
[1] = biological target: T1, Hexokinase HKDC1 (Homo sapiens, UniProt Q2TB90); assay: activation of HKDC1 glucose phosphorylation – biochemical, W721R variant, dose response (AID 504730)
T1 sequence (Q2TB90 whole entry): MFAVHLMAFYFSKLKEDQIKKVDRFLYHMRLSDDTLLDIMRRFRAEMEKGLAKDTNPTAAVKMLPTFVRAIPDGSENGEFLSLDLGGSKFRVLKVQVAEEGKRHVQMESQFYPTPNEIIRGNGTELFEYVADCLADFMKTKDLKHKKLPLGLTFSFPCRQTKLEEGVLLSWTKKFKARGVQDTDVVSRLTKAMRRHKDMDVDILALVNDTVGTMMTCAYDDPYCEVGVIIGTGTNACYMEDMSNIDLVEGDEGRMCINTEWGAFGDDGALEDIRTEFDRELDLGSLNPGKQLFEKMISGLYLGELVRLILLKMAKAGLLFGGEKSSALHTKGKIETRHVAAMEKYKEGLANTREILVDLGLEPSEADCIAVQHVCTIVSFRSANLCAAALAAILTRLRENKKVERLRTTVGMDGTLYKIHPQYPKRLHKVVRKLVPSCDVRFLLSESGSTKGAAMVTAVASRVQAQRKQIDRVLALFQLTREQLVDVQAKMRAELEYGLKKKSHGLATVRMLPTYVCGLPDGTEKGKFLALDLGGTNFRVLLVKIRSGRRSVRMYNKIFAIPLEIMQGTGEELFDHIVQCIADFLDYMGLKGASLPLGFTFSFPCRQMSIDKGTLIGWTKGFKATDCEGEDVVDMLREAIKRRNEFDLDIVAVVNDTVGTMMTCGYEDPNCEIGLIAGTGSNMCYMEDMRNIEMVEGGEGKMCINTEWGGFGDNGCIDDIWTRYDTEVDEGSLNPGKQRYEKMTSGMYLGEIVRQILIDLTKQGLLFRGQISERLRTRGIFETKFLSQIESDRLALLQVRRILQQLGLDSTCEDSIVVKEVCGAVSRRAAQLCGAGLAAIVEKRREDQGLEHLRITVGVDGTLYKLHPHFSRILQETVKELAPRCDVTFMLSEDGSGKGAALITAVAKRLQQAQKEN

[2] = biological target: T2, Hexokinase-1 (Homo sapiens, UniProt P19367); assay: HK1 enzyme activation by HKDC1 hits – biochemical, selectivity assay for HKDC1 activator project, dose response (AID 504762)
T2 sequence (P19367 whole entry): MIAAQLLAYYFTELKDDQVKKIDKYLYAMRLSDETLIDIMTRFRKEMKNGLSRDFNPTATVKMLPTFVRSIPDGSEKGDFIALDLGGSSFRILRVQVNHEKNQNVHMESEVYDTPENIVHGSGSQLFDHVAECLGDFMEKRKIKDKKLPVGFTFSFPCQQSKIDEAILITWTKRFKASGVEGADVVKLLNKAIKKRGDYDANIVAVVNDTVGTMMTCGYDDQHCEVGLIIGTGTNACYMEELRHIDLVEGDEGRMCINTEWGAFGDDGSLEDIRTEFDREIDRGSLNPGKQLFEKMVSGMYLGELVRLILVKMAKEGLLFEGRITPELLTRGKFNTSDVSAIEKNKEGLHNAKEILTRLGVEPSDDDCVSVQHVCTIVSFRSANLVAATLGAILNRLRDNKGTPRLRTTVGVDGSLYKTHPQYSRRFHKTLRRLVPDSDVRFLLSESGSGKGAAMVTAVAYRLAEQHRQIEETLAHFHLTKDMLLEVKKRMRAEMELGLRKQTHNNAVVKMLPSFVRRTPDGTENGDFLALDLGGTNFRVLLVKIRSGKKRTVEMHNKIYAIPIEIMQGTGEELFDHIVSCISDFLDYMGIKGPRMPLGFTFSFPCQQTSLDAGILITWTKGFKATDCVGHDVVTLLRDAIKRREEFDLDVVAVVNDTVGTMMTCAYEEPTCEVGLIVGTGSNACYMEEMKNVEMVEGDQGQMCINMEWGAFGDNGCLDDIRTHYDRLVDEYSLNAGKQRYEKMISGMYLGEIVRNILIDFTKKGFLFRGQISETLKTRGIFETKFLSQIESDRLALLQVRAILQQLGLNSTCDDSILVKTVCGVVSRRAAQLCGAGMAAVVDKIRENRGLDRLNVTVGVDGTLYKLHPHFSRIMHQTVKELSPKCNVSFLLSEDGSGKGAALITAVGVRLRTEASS

[3] = biological target: Bcl-2-related protein A1 (Mus musculus, UniProt Q07440);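 note: confirmatory dose–response counterscreen on Bfl-1, used to check hits from a UBC13 polyubiquitin inhibitor campaign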
Chain of Bcl-2-related protein A1 (Q07440 whole entry): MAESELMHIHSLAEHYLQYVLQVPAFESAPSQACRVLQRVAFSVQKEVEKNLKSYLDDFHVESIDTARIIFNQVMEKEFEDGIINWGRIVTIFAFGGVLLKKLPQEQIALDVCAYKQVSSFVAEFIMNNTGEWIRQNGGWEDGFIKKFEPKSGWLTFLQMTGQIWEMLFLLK

[4] = biological target: T3, Ubiquitin-conjugating enzyme E2 N (Homo sapiens, UniProt P61088)
T3 sequence (P61088 whole entry): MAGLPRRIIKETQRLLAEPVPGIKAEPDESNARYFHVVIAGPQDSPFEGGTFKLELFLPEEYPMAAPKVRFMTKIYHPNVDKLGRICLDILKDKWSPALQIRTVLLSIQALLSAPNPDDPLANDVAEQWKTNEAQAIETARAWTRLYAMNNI

[5] = biological target: T3, Ubiquitin-conjugating enzyme E2 N; remark: listed apart in the source
[6] = biological target: T4, G-protein coupled receptor 35 (Homo sapiens, UniProt Q9HC97); assay: SAR analysis of Agonists of the GPR35 Receptor using an Image-Based Assay - Set 4. [Related pubchem assays (depositor defined):AID2013, AID2026]
T4 sequence (Q9HC97 whole entry): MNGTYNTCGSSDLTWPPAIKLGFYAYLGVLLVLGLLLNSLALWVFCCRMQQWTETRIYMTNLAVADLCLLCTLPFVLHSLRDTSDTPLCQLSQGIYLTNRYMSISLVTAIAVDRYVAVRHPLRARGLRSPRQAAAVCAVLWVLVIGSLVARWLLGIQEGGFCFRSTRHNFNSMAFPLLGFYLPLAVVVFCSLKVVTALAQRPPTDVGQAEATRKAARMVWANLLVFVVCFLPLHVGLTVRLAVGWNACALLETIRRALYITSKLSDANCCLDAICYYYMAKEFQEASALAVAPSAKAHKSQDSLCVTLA

[7] = biological target: T5, Cannabinoid receptor 1 (Homo sapiens, UniProt P21554); assay: SAR analysis of agonists of the Cannabinoid Receptor 1 using an Image-Based Assay - Set 4. [Related pubchem assays (depositor defined):AID2013, AID2026]
T5 sequence (P21554 whole entry): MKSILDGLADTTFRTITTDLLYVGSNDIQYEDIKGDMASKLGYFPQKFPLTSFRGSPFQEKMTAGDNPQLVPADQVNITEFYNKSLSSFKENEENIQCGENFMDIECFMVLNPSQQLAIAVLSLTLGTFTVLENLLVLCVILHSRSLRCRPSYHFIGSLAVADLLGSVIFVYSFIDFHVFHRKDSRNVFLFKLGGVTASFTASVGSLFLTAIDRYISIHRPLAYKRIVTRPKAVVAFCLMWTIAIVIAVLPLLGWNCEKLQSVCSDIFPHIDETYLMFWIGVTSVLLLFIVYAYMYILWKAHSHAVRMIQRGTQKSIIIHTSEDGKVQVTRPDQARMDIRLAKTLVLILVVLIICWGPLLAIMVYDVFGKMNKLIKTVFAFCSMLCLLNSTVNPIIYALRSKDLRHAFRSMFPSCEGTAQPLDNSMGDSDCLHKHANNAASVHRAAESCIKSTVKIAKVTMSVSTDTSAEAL

[8] = biological target: T4, G-protein coupled receptor 35; assay: SAR analysis of Antagonists of the GPR35 Receptor using an Image-Based Assay - Set 6. [Related pubchem assays (depositor defined):AID2013, AID2026]
[9] = biological target: T5, Cannabinoid receptor 1; assay: SAR analysis of antagonists of the Cannabinoid Receptor 1 using an Image-Based Assay - Set 4. [Related pubchem assays (depositor defined):AID2013, AID2026]
[10] = biological target: G-protein coupled receptor 55 (Homo sapiens, UniProt Q9Y2T6); assay: SAR Analysis of Selective Antagonists of GPR55 using an Image-Based Assay - Set 4. [Related pubchem assays (depositor defined):AID2013, AID2026];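 note: antagonism of response to 5 µM lysophosphatidylinositol agonist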
Chain of G-protein coupled receptor 55 (Q9Y2T6 whole entry): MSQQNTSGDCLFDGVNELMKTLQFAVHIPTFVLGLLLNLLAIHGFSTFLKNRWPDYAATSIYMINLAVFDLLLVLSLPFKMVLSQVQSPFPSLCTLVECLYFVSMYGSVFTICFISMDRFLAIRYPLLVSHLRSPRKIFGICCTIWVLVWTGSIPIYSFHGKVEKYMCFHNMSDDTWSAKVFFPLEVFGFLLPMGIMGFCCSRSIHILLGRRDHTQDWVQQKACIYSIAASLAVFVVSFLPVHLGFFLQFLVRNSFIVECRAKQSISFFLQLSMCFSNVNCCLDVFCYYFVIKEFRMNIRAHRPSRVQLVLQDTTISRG

[11] = biological target: T6, Cannabinoid receptor 2 (Homo sapiens, UniProt P34972); assay: SAR analysis of antagonists of the Cannabinoid Receptor 2 using an Image-Based Assay - Set 3. [Related pubchem assays (depositor defined):AID2013, AID2026]
T6 sequence (P34972 whole entry): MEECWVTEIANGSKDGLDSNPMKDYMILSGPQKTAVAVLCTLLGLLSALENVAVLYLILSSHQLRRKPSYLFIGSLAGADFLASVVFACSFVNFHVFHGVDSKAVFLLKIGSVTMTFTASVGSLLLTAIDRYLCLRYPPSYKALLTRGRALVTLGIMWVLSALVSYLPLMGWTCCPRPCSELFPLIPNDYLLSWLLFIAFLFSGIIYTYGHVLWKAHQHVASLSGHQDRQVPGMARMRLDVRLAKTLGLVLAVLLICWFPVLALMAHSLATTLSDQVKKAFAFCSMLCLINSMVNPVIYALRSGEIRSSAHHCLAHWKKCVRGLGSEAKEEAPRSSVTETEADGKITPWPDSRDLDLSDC

[12] = biological target: T6, Cannabinoid receptor 2; assay: SAR analysis of agonists of the Cannabinoid Receptor 2 using an Image-Based Assay - Set 3. [Related pubchem assays (depositor defined):AID2013, AID2026]

- EC50 [1]: 18.1 µM (active)
- EC50 [2]: 24 µM (inactive)
Structure (SMILES): O=S(=O)(NC1c2cccc3cccc(c23)C1N1CCN(CCO)CC1)c1ccccc1 (configuration not stated)

- IC50 [3]: > 20 µM (inactive)
- IC50 [4]: 10.4 µM (active)
- IC50 [5]: 9.79 µM (active)
Structure (SMILES): CCCCN(C(=O)c1ccco1)c1nnc(-c2cc(OC)c(OC)c(OC)c2)s1

- EC50 [6]: > 32 µM (inactive)
- EC50 [7]: > 32 µM (inactive)
- IC50 [8]: > 32 µM (inactive)
- IC50 [9]: > 32 µM (inactive)
- IC50 [10]: > 32 µM (inactive)
- IC50 [11]: > 32 µM (inactive)
- EC50 [12]: > 32 µM (inactive)
Structure (SMILES): Cc1nc(N2CCN(C(=O)C3CCCO3)CC2)c2c3c(sc2n1)CCCC3 (configuration not stated)
